# Test results from patent US12565680B2, “Cancer neoantigens and their utilities in cancer vaccines and TCR-based cancer immunotherapy” (THE METHODIST HOSPITAL SYSTEM, priority 2018, dated 2026).
# How the values were obtained:
# 136TIL = assay: Intracellular staining of IFN-γ after neoantigen peptide stimulation, 136TIL; type: cell-based, human
# From the text: Among them, MAPK9 and ANKIB1 neoantigen-specific CD4^+ T cells accounted for 14.3% and 5.2% in the total T cell population, which accounted for 58% and 21% in the total tumor-reactive CD4^+ T cell population, respectively (FIG. 11B). By contrast, other neoantigen-specific CD4^+ T cells accounted for only a small percentage of T cells in the total T cell population (FIG. 11A). Since HHAT is only one MHC-I neoantigen, it was shown that HHAT neoantigen-specific CD8^+ T cells accounted for 10.6% in the total T cell population when stimulation with HHAT peptide (FIG. 11A), which accounted for 73% in the total tumor-reactive CD8^+ T cell population (FIG. 11B).
# T cells were stimulated by various in vitro methods, such as tumor cells, peptides or DNA encoding neoantigens, etc. and induced to release cytokines. Stimulated T cells were resuspended in 100 μl of Cytofix/Cytoperm solution (BD Biosciences) per well for microwell plates (or 250 μl for tubes) and incubated for 20 min at 4° C. for cell fixation. Fixed cells were permeabilized by washing twice in 1× Perm/Wash buffer (BD Biosciences). Then the fixed/permeabilized cells were thoroughly resuspended in 50 μl of 1× Perm/Wash buffer containing 1 μl of phycoerythrin (PE)-conjugated IFN-γ antibody (Thermo Fisher Scientific) and incubate at 4° C. for 30 min in the dark. After that the cells were washed twice with 1× Perm/Wash buffer and ready for flow cytometric analysis.
# [1] = test system: CD8^+ T cells isolated from 136 TILs; assay: T-cell reactivity assay (ELISA): TMGs in MHC-I expressing Cos7 cells; type: cell-based, human; conditions: Cos7-A1, Cos7-B8, Cos7-C7 cells
# From the text: To identify MHC-I neoantigens, MHC-I expressing Cos7 cells were transfected (Cos7-A1, Cos7-B8 and Cos7-C7) cells with 35 TMGs, respectively, followed by adding CD8^+ T cells isolated from 136 TILs. […] To exclude the possibility that other MHC-I and II molecules could also present neoantigens for T cell recognition, fibroblasts were generated from patient #136 tumor samples and used as APCs to express all MHC I and II molecules after IFN-γ pretreatment (FIG. 9C). The IFN-γ—pretreated fibroblasts were electroporated with in IVT mRNA of 136 mel TMGs, and then co-cultured with 136TILs.
# [2] = test system: A2ESO TCR-transduced CD4^+ T cells
# Protocol: It was hypothesized that the improvement killing ability of CD4^+ T cells due to ThPOK knockdown is procedure of T-cell reprogramming via epigenetic regulation. To distinguish how ThPOK reprogrammed CD4^+ T cells to cytolytic CD4^+ T cells, a screening of A2ESO TCR-transduced CD4^+ T cells treated by various epigenetic inhibitors was performed.
# [3] = test system: MDA-MB-231 cells expressing HLA-A2 and NY-ESO-1; conditions: mouse
# From the text: A breast cancer model was established using MDA-MB-231 cells expressing HLA-A2 and NY-ESO-1 antigen in 8 weeks old NOD-scid IL2Rγnull (NSG) mice.
# A2ESO TCR-T cells = test system: A2ESO TCR-T cells
# Protocol: Activated human T cells were transduced on day 2 and day 3 with A2ESO TCR viruses that were packaged by PG13-A2ESO TCR clone. […] To investigate the functional change of A2ESO TCR-T cells after 2-PCPA treatment, intracellular staining (ICS) was performed to check the expression of effector cytokines, targeting IL-2, IFN-γ and TNF-α. […] Another key feature of less-differentiated T cell is increased oxidative metabolism and mitochondrial respiratory capacity.
# primary human T cells = conditions: OKT3 activated T cells, day 12, CD45RO^− CCR7^+ CD62L^+
# Raji lymphoma cells = conditions: mouse
# From the text: (§1) Both CAR and luciferase were transduced into activated T cells and transfer into NSG mice that have been injected with Raji lymphoma cells.
# CAR-T cells = test system: CAR-T cells
# From the text: as §1
Compound,neoantigen-specific CD8^+ T cells in the total T cell population (136TIL) [%],share in the total tumor-reactive CD8^+ T cell population (136TIL) [%],activation of CD8^+ T cell response [1],cytolytic activity of CD4^+ TCR-T cells [2],in vivo anti-tumor function of A2ESO TCR-T cells [3],memory phenotype of T cells after adoptive transfer ([3]; in vivo),oxidative metabolism and spare respiratory capacity (A2ESO TCR-T cells),Tscm and Tcm percentages in A2ESO TCR-T cells (A2ESO TCR-T cells; 8 uM),"frequency of A2ESO TCR-T cells with polyfunctional cytokine secretion (A2ESO TCR-T cells; ICS for IL-2, IFN-γ and TNF-α)",in vitro survival effect on A2ESO TCR-T cells (A2ESO TCR-T cells; IL-2 free condition),in vitro proliferation (CFSE) (A2ESO TCR-T cells; stimulation with IL-2 or 231-ESO cells),population of Tscm (primary human T cells),in vivo proliferation of CAR-T cells (in vivo imaging) (Raji lymphoma cells),memory phenotype of CAR-T cells (CAR-T cells),metabolic reprogramming effect on CAR-T cells (CAR-T cells),in vitro survival of CAR-T cells (CAR-T cells; IL-2 free condition)
TSMLILSNLVFLEGNEVGKTYWNRI [HHAT],10.6,73,HLA-A1 restricted neoantigen,,,,,,,,,,,,,
NC1CC1c1ccccc1 (stereo not shown) [2-PCPA],,,,dramatically enhanced the cytolytic activity,significantly enhanced,maintained higher frequency of both Tscm and Tcm cells,increased oxidative metabolism and elevated spare respiratory capacity (SRC),increased both Tscm and Tcm percentages,slightly increased,not seen,high proliferation potential,increased the population of Tscm in both CD4^+ and CD8^+ T cells,grew faster than control CAR-T cells,similarly increased the frequencies of less-differentiated memory T cells subsets,consistent with its effect on A2ESO TCR-T cells,survived better
